Columns and labels:
Format in all cases: in vivo
rats [1] = experiment: Uterotonic endocrine activity in rats; details: rat
Description: (§1) The endocrine biological activities (in I.U./mg--International Unit--see "Handbook of Experimental Pharmacology", Vol. XXIII: Neurohypophysical hormones and similar polypeptides (B. Berde, Ed), p. 131, Springer-Verlag,Berlin 1968) of the described compounds were determined in rats.

rats [2] = experiment: Galactogogic endocrine activity in rats; details: rat
Description: as §1

rats [3] = experiment: Pressor endocrine activity in rats; details: rat
Description: as §1

anaesthesized rat = experiment: Antidiuretic activity, anaesthesized rat
Description: as §1

nonanaesthesized rat = experiment: Antidiuretic activity, nonanaesthesized rat; details: percent of the effect of [8D-argine] deaminovasopressin at the level of threshold efficiency
Description: as §1
b = nonanaesthesized rat Activity is expressed in percent of the effect o
[8D-argine] deaminovasopressin at the level of threshold efficiency

Molecule | Uterotonic activity (rats [1]) [I.U./mg] | Galactogogic activity (rats [2]) [I.U./mg] | Pressor activity (rats [3]) | Antidiuretic activity a (anaesthesized rat) [I.U./mg] | Antidiuretic activity b (nonanaesthesized rat) [%]
NC(=O)CC[C@@H]1NC(=O)[C@H](Cc2ccccc2)NC(=O)[C@H](Cc2ccc(O)cc2)NC(=O)[C@@H](N)CSSC[C@@H](C(=O)N2CCC[C@H]2C(=O)N[C@@H](CCCN=C(N)N)C(=O)NCC(N)=O)NC(=O)[C@H](CC(N)=O)NC1=O [AVP, [8arginine] vasopressin, reference compound] | 17 | 69 | 465 I.U./mg | 465 | 20
[8-Ornithine, 9-desglycinamide]vasopressin [Ic] | 0.09 | 0.02 | 0.2 I.U./mg | 0.3 | 0.1
[8-D-Arginine, 9-desglycinamide] vasopressin [Ib] | 0.07 | 0.12 | 0.2 I.U./mg | 4.5 | 0.4
Lactam of tyrosyl-phenylalanyl-glutaminyl-asparaginyl-S-(γ-carboxypropyl)cysteinyl-prolyl-D-arginine [Ia] | 0.09 | – | inhibition | 0.8 | 0.2

Reference: patent publication US4482486A, “Analogs of vasopressin” (Ceskoslovenska akademie ved, priority 1982, dated 1984)
